Results as given in publication PMC9986241 (Signal Transduction and Targeted Therapy, 2023).

What was measured:
Assay in all cases: KinaseProfiler enzyme profiling
Format in all cases: biochemical
A-Raf(h) = target: T1, A-Raf(h) (Homo sapiens, UniProt P10398); conditions: 100 nM
T1 construct: purchased Eurofins KinaseProfiler
Summary of the method: (§1)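 Compound erianin, 100 nM final, profiled on 70 recombinant kinases in vitro; 2 repeats.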

Snk(h) = target: T2, Snk(h) (Homo sapiens, UniProt Q9NYY3); conditions: 100 nM
T2 construct: purchased Eurofins KinaseProfiler
Summary of the method: as §1

ZIPK(h) = target: T3, ZIPK(h) (Homo sapiens, UniProt O43293); conditions: 100 nM
T3 construct: purchased Eurofins KinaseProfiler
Summary of the method: as §1

Fgr(h) = target: T4, Fgr(h) (Homo sapiens, UniProt P09769); conditions: 100 nM
T4 construct: purchased Eurofins KinaseProfiler
Summary of the method: as §1

Pim-2(h) = target: T5, Pim-2(h) (Homo sapiens, UniProt Q9P1W9); conditions: 100 nM
T5 construct: purchased Eurofins KinaseProfiler
Summary of the method: as §1

Rsk2(h) = target: T6, Rsk2(h) (Homo sapiens, UniProt P51812)
T6 construct: purchased Eurofins KinaseProfiler
Summary of the method: (§2)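 Duplicate in vitro measurements were made for each of 70 profiled kinases exposed to erianin at a fixed 100 nM.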

SGK(h) = target: T7, SGK(h) (Homo sapiens, UniProt O00141); conditions: 100 nM
T7 construct: purchased Eurofins KinaseProfiler
Summary of the method: as §1

Rsk3(h) = target: T8, Rsk3(h) (Homo sapiens, UniProt Q15349); conditions: 100 nM
T8 construct: purchased Eurofins KinaseProfiler
Summary of the method: as §1

MEK2(h) = target: T9, MEK2(h) (Homo sapiens, UniProt P36507)
T9 construct: purchased Eurofins KinaseProfiler
Summary of the method: as §2

EphA1(h) = target: T10, EphA1(h) (Homo sapiens, UniProt P21709); conditions: 100 nM
T10 construct: purchased Eurofins KinaseProfiler
Summary of the method: as §1

KDR(h) = target: T11, KDR(h) (Homo sapiens, UniProt P35968); conditions: 100 nM
T11 construct: purchased Eurofins KinaseProfiler
Summary of the method: as §1

CaMKIIα(h) = target: T12, CaMKIIα(h) (Homo sapiens, UniProt Q9UQM7); conditions: 100 nM
T12 construct: purchased Eurofins KinaseProfiler
Summary of the method: as §1

NEK3(h) = target: T13, NEK3(h) (Homo sapiens, UniProt P51956)
T13 construct: purchased Eurofins KinaseProfiler
Summary of the method: as §1

MST1(h) = target: T14, MST1(h) (Homo sapiens, UniProt Q13043)
T14 construct: purchased Eurofins KinaseProfiler
Summary of the method: as §1

CDK7/cyclinH/MAT1(h) = target: T15, CDK7/cyclinH/MAT1(h) (Homo sapiens, UniProt P50613)
T15 construct: purchased Eurofins KinaseProfiler
Summary of the method: as §1

CDK12/cyclinK(h) = target: T16, CDK12/cyclinK(h) (Homo sapiens, UniProt Q9NYV4)
T16 construct: purchased Eurofins KinaseProfiler
Summary of the method: as §1

ErbB2(h) = target: T17, ErbB2(h) (Homo sapiens, UniProt P04626)
T17 construct: purchased Eurofins KinaseProfiler
Summary of the method: as §1

SAPK2a(h) = target: T18, SAPK2a(h) (Homo sapiens, UniProt Q16539)
T18 construct: purchased Eurofins KinaseProfiler
Summary of the method: as §1

PAK6(h) = target: T19, PAK6(h) (Homo sapiens, UniProt Q9NQU5)
T19 construct: purchased Eurofins KinaseProfiler
Summary of the method: as §1

MST2(h) = target: T20, MST2(h) (Homo sapiens, UniProt Q13188)
T20 construct: purchased Eurofins KinaseProfiler
Summary of the method: as §1

DMPK(h) = target: T21, DMPK(h) (Homo sapiens, UniProt Q09013)
T21 construct: purchased Eurofins KinaseProfiler
Summary of the method: as §1

ErbB4(h) = target: T22, ErbB4(h) (Homo sapiens, UniProt Q15303)
T22 construct: purchased Eurofins KinaseProfiler
Summary of the method: as §1

NEK7(h) = target: T23, NEK7(h) (Homo sapiens, UniProt Q8TDX7)
T23 construct: purchased Eurofins KinaseProfiler
Summary of the method: as §1

SAPK2b(h) = target: T24, SAPK2b(h) (Homo sapiens, UniProt Q15759)
T24 construct: purchased Eurofins KinaseProfiler
Summary of the method: as §1

NEK6(h) = target: T25, NEK6(h) (Homo sapiens, UniProt Q9HC98)
T25 construct: purchased Eurofins KinaseProfiler
Summary of the method: as §1

CK1γ1(h) = target: T26, CK1γ1(h) (Homo sapiens, UniProt Q9HCP0)
T26 construct: purchased Eurofins KinaseProfiler
Summary of the method: as §1

CDK5/p35(h) = target: T27, CDK5/p35(h) (Homo sapiens, UniProt Q00535)
T27 construct: purchased Eurofins KinaseProfiler
Summary of the method: as §1

cKit(h) = target: T28, cKit(h) (Homo sapiens, UniProt P10721)
T28 construct: purchased Eurofins KinaseProfiler
Summary of the method: as §1

ARK5(h) = target: T29, ARK5(h) (Homo sapiens, UniProt O60285)
T29 construct: purchased Eurofins KinaseProfiler
Summary of the method: as §1

Mer(h) = target: T30, Mer(h) (Homo sapiens, UniProt Q12866)
T30 construct: purchased Eurofins KinaseProfiler
Summary of the method: as §1

Axl(h) = target: T31, Axl(h) (Homo sapiens, UniProt P30530)
T31 construct: purchased Eurofins KinaseProfiler
Summary of the method: as §1

NIM1(h) = target: T32, NIM1(h) (Homo sapiens, UniProt Q8IY84)
T32 construct: purchased Eurofins KinaseProfiler
Summary of the method: as §1

FGFR3(h) = target: T33, FGFR3(h) (Homo sapiens, UniProt P22607)
T33 construct: purchased Eurofins KinaseProfiler
Summary of the method: as §1

Bmx(h) = target: T34, Bmx(h) (Homo sapiens, UniProt P51813)
T34 construct: purchased Eurofins KinaseProfiler
Summary of the method: as §1

EGFR(T790M)(h) = target: T35, EGFR(T790M)(h) (Homo sapiens, UniProt P00533, T790M)
T35 construct: purchased Eurofins KinaseProfiler
Summary of the method: as §1

FGFR4(h) = target: T36, FGFR4(h) (Homo sapiens, UniProt P22455)
T36 construct: purchased Eurofins KinaseProfiler
Summary of the method: as §1

Aurora-B(h) = target: T37, Aurora-B(h) (Homo sapiens, UniProt Q96GD4)
T37 construct: purchased Eurofins KinaseProfiler
Summary of the method: as §1

CSK(h) = target: T38, CSK(h) (Homo sapiens, UniProt P41240)
T38 construct: purchased Eurofins KinaseProfiler
Summary of the method: as §1

MKK7β(h) = target: T39, MKK7β(h) (Homo sapiens, UniProt O14733)
T39 construct: purchased Eurofins KinaseProfiler
Summary of the method: as §1

EphA2(h) = target: T40, EphA2(h) (Homo sapiens, UniProt P29317)
T40 construct: purchased Eurofins KinaseProfiler
Summary of the method: as §1

DCAMKL3(h) = target: T41, DCAMKL3(h) (Homo sapiens, UniProt Q9C098)
T41 construct: purchased Eurofins KinaseProfiler
Summary of the method: as §1

CDK7/cyclinH(h) = target: T42, CDK7/cyclinH(h) (Homo sapiens, UniProt P50613)
T42 construct: purchased Eurofins KinaseProfiler
Summary of the method: as §1

T20 sequence (Q13188 whole entry): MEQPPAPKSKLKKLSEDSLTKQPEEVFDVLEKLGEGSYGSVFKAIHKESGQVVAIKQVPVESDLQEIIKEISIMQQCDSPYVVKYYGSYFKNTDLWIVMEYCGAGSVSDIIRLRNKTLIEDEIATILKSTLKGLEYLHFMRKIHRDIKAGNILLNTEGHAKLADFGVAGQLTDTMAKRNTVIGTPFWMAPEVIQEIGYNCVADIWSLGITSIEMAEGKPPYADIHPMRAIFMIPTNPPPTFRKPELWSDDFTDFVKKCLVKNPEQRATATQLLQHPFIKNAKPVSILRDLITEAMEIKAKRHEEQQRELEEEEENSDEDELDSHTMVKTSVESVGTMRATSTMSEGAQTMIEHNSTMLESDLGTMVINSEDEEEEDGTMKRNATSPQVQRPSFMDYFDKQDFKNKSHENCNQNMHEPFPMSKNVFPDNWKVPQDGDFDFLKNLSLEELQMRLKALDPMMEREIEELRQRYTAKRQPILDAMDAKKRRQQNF
T37 sequence (Q96GD4 whole entry): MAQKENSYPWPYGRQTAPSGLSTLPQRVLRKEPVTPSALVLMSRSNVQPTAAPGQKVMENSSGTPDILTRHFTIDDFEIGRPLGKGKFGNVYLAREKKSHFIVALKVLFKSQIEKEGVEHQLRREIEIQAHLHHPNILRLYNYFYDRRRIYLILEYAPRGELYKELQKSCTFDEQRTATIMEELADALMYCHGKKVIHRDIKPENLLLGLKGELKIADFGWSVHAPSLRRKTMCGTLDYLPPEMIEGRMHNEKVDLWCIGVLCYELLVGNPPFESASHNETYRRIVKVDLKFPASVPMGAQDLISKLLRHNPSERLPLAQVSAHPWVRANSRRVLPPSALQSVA
T32 sequence (Q8IY84 whole entry): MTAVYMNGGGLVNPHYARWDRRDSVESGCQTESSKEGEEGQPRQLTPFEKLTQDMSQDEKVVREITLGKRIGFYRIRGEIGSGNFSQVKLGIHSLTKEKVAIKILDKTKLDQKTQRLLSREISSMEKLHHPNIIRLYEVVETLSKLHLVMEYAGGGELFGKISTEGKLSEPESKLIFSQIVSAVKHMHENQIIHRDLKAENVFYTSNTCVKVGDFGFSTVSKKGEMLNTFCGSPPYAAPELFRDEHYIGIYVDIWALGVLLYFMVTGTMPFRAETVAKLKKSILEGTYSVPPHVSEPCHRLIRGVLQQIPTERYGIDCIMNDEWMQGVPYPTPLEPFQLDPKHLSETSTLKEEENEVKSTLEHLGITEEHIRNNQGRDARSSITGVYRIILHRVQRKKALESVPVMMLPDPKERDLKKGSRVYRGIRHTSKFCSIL
T2 sequence (Q9NYY3 whole entry): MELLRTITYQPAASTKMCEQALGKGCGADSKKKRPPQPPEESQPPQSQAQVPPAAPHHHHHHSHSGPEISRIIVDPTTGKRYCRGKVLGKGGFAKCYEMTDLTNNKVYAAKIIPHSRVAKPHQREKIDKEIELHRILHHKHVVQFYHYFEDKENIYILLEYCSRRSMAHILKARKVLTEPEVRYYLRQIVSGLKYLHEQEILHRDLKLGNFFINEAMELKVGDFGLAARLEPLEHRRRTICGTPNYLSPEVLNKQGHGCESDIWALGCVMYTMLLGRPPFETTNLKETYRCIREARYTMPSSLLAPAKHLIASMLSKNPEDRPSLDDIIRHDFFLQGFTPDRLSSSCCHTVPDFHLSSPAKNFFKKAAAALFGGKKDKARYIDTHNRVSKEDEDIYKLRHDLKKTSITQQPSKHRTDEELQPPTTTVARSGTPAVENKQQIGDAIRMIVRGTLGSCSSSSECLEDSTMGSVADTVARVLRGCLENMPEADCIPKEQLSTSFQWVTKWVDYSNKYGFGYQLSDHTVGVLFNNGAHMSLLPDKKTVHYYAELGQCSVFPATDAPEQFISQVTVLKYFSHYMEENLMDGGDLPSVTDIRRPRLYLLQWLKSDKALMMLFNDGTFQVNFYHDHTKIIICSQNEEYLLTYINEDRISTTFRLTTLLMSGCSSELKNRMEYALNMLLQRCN
T16 sequence (Q9NYV4 whole entry): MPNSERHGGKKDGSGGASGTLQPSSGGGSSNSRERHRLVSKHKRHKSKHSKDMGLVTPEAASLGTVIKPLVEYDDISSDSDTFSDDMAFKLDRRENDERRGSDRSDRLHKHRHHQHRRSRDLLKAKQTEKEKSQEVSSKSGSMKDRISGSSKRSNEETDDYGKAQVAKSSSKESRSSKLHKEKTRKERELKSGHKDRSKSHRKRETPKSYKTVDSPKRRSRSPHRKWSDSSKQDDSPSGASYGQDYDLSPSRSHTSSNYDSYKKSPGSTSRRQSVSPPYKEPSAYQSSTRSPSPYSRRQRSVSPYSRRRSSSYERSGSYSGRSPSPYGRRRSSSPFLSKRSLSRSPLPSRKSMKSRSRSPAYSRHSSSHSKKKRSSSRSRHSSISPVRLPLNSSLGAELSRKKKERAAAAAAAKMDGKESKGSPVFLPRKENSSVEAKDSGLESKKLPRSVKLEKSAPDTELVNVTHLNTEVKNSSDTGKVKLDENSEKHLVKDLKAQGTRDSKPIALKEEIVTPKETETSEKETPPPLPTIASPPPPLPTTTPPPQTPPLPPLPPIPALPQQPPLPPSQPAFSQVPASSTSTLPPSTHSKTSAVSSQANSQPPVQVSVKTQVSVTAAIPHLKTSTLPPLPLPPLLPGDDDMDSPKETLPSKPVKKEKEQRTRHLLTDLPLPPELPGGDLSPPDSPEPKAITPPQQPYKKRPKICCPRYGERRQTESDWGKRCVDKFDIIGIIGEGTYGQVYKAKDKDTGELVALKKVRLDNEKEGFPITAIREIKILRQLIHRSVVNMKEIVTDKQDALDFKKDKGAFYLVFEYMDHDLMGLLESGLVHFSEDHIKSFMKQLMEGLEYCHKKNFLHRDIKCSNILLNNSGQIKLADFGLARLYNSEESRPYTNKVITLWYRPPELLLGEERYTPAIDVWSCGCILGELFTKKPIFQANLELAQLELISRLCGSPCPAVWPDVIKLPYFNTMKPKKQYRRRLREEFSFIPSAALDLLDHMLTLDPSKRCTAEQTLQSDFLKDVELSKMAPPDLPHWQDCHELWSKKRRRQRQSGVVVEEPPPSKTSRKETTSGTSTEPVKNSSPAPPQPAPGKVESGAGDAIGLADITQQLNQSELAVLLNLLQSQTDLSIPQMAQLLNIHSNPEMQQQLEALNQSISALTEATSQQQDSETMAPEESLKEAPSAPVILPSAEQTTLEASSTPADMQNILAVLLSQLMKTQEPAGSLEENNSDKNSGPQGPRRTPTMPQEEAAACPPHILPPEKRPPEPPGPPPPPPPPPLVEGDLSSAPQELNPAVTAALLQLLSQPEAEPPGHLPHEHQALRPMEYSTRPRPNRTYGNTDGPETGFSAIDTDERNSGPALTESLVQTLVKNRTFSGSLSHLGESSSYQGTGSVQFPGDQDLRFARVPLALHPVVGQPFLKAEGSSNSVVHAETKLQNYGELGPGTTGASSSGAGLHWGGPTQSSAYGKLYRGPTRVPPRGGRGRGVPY
T16 sequence (O75909 whole entry partner): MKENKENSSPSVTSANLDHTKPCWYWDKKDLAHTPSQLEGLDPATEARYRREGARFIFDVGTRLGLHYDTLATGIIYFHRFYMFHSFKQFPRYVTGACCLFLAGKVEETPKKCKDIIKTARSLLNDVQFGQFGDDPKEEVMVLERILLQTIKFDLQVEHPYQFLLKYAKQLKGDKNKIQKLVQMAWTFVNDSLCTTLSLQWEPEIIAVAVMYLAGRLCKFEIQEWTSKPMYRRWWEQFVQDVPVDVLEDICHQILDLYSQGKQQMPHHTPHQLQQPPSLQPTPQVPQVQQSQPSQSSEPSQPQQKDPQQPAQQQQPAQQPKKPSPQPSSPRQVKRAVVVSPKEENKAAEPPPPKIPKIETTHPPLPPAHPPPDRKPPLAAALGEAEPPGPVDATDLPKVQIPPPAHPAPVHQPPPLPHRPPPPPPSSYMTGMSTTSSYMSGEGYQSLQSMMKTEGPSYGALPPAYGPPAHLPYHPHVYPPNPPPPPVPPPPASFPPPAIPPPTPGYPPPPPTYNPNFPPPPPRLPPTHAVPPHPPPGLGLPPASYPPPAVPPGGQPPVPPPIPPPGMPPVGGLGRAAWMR
T25 sequence (Q9HC98 whole entry): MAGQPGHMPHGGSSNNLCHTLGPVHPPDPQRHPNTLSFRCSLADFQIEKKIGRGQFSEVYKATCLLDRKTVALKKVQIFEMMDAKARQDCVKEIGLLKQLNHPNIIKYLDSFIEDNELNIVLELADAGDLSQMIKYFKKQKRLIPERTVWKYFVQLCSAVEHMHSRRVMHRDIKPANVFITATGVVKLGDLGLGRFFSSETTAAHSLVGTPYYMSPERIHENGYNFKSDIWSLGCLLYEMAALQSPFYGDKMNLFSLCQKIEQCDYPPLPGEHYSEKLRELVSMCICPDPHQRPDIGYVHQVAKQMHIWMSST
T24 sequence (Q15759 whole entry): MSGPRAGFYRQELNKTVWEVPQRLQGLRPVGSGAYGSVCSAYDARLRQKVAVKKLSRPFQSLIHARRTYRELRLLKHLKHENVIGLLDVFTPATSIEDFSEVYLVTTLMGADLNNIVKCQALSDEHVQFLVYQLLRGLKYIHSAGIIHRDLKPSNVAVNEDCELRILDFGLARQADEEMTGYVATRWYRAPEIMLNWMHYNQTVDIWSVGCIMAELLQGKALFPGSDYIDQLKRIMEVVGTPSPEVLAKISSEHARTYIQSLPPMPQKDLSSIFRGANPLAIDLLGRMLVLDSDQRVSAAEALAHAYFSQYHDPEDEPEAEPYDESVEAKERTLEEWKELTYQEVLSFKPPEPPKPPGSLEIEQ
T5 sequence (Q9P1W9 whole entry): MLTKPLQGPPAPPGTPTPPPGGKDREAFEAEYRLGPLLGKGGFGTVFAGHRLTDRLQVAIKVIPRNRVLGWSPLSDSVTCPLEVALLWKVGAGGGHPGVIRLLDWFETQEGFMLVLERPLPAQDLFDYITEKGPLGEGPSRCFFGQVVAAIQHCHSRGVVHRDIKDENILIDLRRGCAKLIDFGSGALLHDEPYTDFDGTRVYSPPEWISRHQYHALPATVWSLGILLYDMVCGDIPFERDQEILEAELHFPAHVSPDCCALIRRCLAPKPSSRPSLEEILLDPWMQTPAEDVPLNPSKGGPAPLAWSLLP

## COc1ccc(CCc2cc(OC)c(OC)c(OC)c2)cc1O [Erianin]
A-Raf(h)
  activity at 0.1 µM: 109%
Snk(h)
  activity at 0.1 µM: 109%
ZIPK(h)
  activity at 0.1 µM: 111%
Fgr(h)
  activity at 0.1 µM: 91%
Pim-2(h)
  activity at 0.1 µM: 103%
Rsk2(h)
  activity at 0.1 µM: 106%
SGK(h)
  activity at 0.1 µM: 122%
Rsk3(h)
  activity at 0.1 µM: 108%
MEK2(h)
  activity at 0.1 µM: 83%
EphA1(h)
  activity at 0.1 µM: 101%
KDR(h)
  activity at 0.1 µM: 96%
CaMKIIα(h)
  activity at 0.1 µM: 90%

## C=C1C(=O)[C@]23[C@H](O)[C@H]1CC[C@H]2[C@@]12CO[C@]3(O)[C@@H](O)[C@@H]1C(C)(C)CC[C@@H]2O [Oridonin]
NEK3(h)
  activity at 10 µM: 64%
MST1(h)
  activity at 10 µM: 65%
CDK7/cyclinH/MAT1(h)
  activity at 10 µM: 69%
CDK12/cyclinK(h)
  activity at 10 µM: 98%
ErbB2(h)
  activity at 10 µM: 112%
SAPK2a(h)
  activity at 10 µM: 141%
PAK6(h)
  activity at 10 µM: 104%
MST2(h)
  activity at 10 µM: 54%
DMPK(h)
  activity at 10 µM: 104%
ErbB4(h)
  activity at 10 µM: 91%
NEK7(h)
  activity at 10 µM: 101%
SAPK2b(h)
  activity at 10 µM: 102%
NEK6(h)
  activity at 10 µM: 99%

## COc1cc2oc(-c3ccc(O)c(O)c3)cc(=O)c2c(O)c1OC [Cirsiliol]
CK1γ1(h)
  activity at 10 µM: 103%
CDK5/p35(h)
  activity at 10 µM: 99%
cKit(h)
  activity at 10 µM: 93%
ARK5(h)
  activity at 10 µM: 97%
Mer(h)
  activity at 10 µM: 109%
Axl(h)
  activity at 10 µM: 97%
NIM1(h)
  activity at 10 µM: 121%
FGFR3(h)
  activity at 10 µM: 98%
Bmx(h)
  activity at 10 µM: 89%
EGFR(T790M)(h)
  activity at 10 µM: 117%
FGFR4(h)
  activity at 10 µM: 87%
Aurora-B(h)
  activity at 10 µM: 86%
CSK(h)
  activity at 10 µM: 100%
MKK7β(h)
  activity at 10 µM: 95%
EphA2(h)
  activity at 10 µM: 97%
DCAMKL3(h)
  activity at 10 µM: 109%
CDK7/cyclinH(h)
  activity at 10 µM: 92%
